{"source": "PubChem BioAssay AID1259407", "about": "(Chemical Carcinogenesis Research Information System (CCRIS), 2018)", "tested_on": "CCRIS mutagenicity, Ames/micronucleus/aberration tests", "experiment": "CCRIS mutagenicity studies", "note": "Activity calls are given as the source filed them. How the calls were made is not given here.", "data": [{"smiles": "CC(C)(OO)c1ccccc1", "values": [{"measurement": "mutagenic call", "setting": "Test System: AMES SALMONELLA TYPHIMURIUM, Strain/Indicator: TA97A, Metabolic Activation: RAT LIVER S-9, AROCLOR 1254, Method: PREINCUBATION", "result": "active; positive"}, {"measurement": "mutagenic call", "setting": "Test System: AMES SALMONELLA TYPHIMURIUM, Strain/Indicator: TA98, Metabolic Activation: NONE, Method: FLUCTUATION (MICROTITER)", "result": "active; positive"}, {"measurement": "mutagenic call", "setting": "Test System: AMES SALMONELLA TYPHIMURIUM, Strain/Indicator: TA98, Metabolic Activation: RAT LIVER S-9, AROCLOR 1254, Method: FLUCTUATION (MICROTITER)", "result": "inactive; negative"}, {"measurement": "mutagenic call", "setting": "Test System: AMES SALMONELLA TYPHIMURIUM, Strain/Indicator: TA104, Metabolic Activation: RAT LIVER S-9, AROCLOR 1254, Method: PREINCUBATION", "result": "active; positive"}, {"measurement": "mutagenic call", "setting": "Test System: AMES SALMONELLA TYPHIMURIUM, Strain/Indicator: TA1537, Metabolic Activation: NONE, Method: FLUCTUATION (MICROTITER)", "result": "active; positive"}, {"measurement": "mutagenic call", "setting": "Test System: AMES SALMONELLA TYPHIMURIUM, Strain/Indicator: TA1537, Metabolic Activation: RAT LIVER S-9, AROCLOR 1254, Method: FLUCTUATION (MICROTITER", "result": "active; positive"}, {"measurement": "mutagenic call", "setting": "Test System: AMES SALMONELLA TYPHIMURIUM, Strain/Indicator: TA2638A, Metabolic Activation: NONE, Method: STANDARD PLATE", "result": "active; positive"}, {"measurement": "mutagenic call", "setting": "Test System: AMES SALMONELLA TYPHIMURIUM, Strain/Indicator: TA7001, Metabolic Activation: NONE, Method: FLUCTUATION (MICROTITER)", "result": "inactive; negative"}, {"measurement": "mutagenic call", "setting": "Test System: AMES SALMONELLA TYPHIMURIUM, Strain/Indicator: TA7001, Metabolic Activation: RAT LIVER S-9, AROCLOR 1254, Method: FLUCTUATION (MICROTITER)", "result": "active; positive"}, {"measurement": "mutagenic call", "setting": "Test System: AMES SALMONELLA TYPHIMURIUM, Strain/Indicator: TA7002, Metabolic Activation: NONE, Method: FLUCTUATION (MICROTITER)", "result": "active; positive"}, {"measurement": "mutagenic call", "setting": "Test System: AMES SALMONELLA TYPHIMURIUM, Strain/Indicator: TA7002, Metabolic Activation: RAT LIVER S-9, AROCLOR 1254, Method: FLUCTUATION (MICROTITER)", "result": "inactive; negative"}, {"measurement": "mutagenic call", "setting": "Test System: AMES SALMONELLA TYPHIMURIUM, Strain/Indicator: TA7003, Metabolic Activation: NONE, Method: FLUCTUATION (MICROTITER)", "result": "inactive; negative"}, {"measurement": "mutagenic call", "setting": "Test System: AMES SALMONELLA TYPHIMURIUM, Strain/Indicator: TA7003, Metabolic Activation: RAT LIVER S-9, AROCLOR 1254, Method: FLUCTUATION (MICROTITER)", "result": "inactive; negative"}, {"measurement": "mutagenic call", "setting": "Test System: AMES SALMONELLA TYPHIMURIUM, Strain/Indicator: TA7004, Metabolic Activation: NONE, Method: FLUCTUATION (MICROTITER)", "result": "active; positive"}, {"measurement": "mutagenic call", "setting": "Test System: AMES SALMONELLA TYPHIMURIUM, Strain/Indicator: TA7004, Metabolic Activation: RAT LIVER S-9, AROCLOR 1254, Method: FLUCTUATION (MICROTITER)", "result": "active; positive"}, {"measurement": "mutagenic call", "setting": "Test System: AMES SALMONELLA TYPHIMURIUM, Strain/Indicator: TA7005, Metabolic Activation: NONE, Method: FLUCTUATION (MICROTITER)", "result": "active; positive"}, {"measurement": "mutagenic call", "setting": "Test System: AMES SALMONELLA TYPHIMURIUM, Strain/Indicator: TA7005, Metabolic Activation: RAT LIVER S-9, AROCLOR 1254, Method: FLUCTUATION (MICROTITER)", "result": "active; positive"}, {"measurement": "mutagenic call", "setting": "Test System: AMES SALMONELLA TYPHIMURIUM, Strain/Indicator: TA7006, Metabolic Activation: NONE, Method: FLUCTUATION (MICROTITER)", "result": "active; positive"}, {"measurement": "mutagenic call", "setting": "Test System: AMES SALMONELLA TYPHIMURIUM, Strain/Indicator: TA7006, Metabolic Activation: RAT LIVER S-9, AROCLOR 1254, Method: FLUCTUATION (MICROTITER)", "result": "active; positive"}, {"measurement": "mutagenic call", "setting": "Test System: E. COLI, Strain/Indicator: WP2 (PKM101), Metabolic Activation: NONE, Method: STANDARD PLATE", "result": "active; positive"}, {"measurement": "mutagenic call", "setting": "Test System: E. COLI, Strain/Indicator: WP2 UVRA (PKM101), Metabolic Activation: NONE, Method: STANDARD PLATE", "result": "active; positive"}]}, {"smiles": "CCSCCSP(=S)(OC)OC", "values": [{"measurement": "mutagenic call", "setting": "Test System: AMES SALMONELLA TYPHIMURIUM, Strain/Indicator: TA97A, Metabolic Activation: NONE, Method: STANDARD PLATE", "result": "inactive; negative"}, {"measurement": "mutagenic call", "setting": "Test System: AMES SALMONELLA TYPHIMURIUM, Strain/Indicator: TA97A, Metabolic Activation: PLANT, HOMOGENATE, S-14, Method: STANDARD PLATE", "result": "inactive; negative"}, {"measurement": "mutagenic call", "setting": "Test System: AMES SALMONELLA TYPHIMURIUM, Strain/Indicator: TA97A, Metabolic Activation: S-9, Method: STANDARD PLATE", "result": "inactive; negative"}, {"measurement": "mutagenic call", "setting": "Test System: AMES SALMONELLA TYPHIMURIUM, Strain/Indicator: TA98, Metabolic Activation: NONE, Method: STANDARD PLATE", "result": "inactive; negative"}, {"measurement": "mutagenic call", "setting": "Test System: AMES SALMONELLA TYPHIMURIUM, Strain/Indicator: TA98, Metabolic Activation: PLANT, HOMOGENATE, S-14, Method: STANDARD PLATE", "result": "inactive; negative"}, {"measurement": "mutagenic call", "setting": "Test System: AMES SALMONELLA TYPHIMURIUM, Strain/Indicator: TA98, Metabolic Activation: S-9, Method: STANDARD PLATE", "result": "inactive; negative"}, {"measurement": "mutagenic call", "setting": "Test System: AMES SALMONELLA TYPHIMURIUM, Strain/Indicator: TA100, Metabolic Activation: NONE, Method: STANDARD PLATE", "result": "inactive; negative"}, {"measurement": "mutagenic call", "setting": "Test System: AMES SALMONELLA TYPHIMURIUM, Strain/Indicator: TA100, Metabolic Activation: PLANT, HOMOGENATE, S-14, Method: STANDARD PLATE", "result": "inactive; negative"}, {"measurement": "mutagenic call", "setting": "Test System: AMES SALMONELLA TYPHIMURIUM, Strain/Indicator: TA100, Metabolic Activation: S-9, Method: STANDARD PLATE", "result": "inactive; negative"}, {"measurement": "mutagenic call", "setting": "Test System: AMES SALMONELLA TYPHIMURIUM, Strain/Indicator: TA1535, Metabolic Activation: PLANT, HOMOGENATE, S-14, Method: STANDARD PLATE", "result": "inactive; negative"}, {"measurement": "mutagenic call", "setting": "Test System: AMES SALMONELLA TYPHIMURIUM, Strain/Indicator: TA1535, Metabolic Activation: S-9, Method: STANDARD PLATE", "result": "inactive; negative"}, {"measurement": "mutagenic call", "setting": "Test System: AMES SALMONELLA TYPHIMURIUM, Strain/Indicator: TA1535, Metabolic Activation: S-9 MIX, Method: STANDARD PLATE", "result": "active; positive"}]}, {"smiles": "CCc1c(O)c(=O)ccn1CC", "values": [{"measurement": "mutagenic call", "setting": "Test System: Mouse lymphoma, Strain/Indicator: L5178Y (tk+/tk-), Metabolic Activation: None, Method: Suspension/plate", "result": "active; positive"}, {"measurement": "mutagenic call", "setting": "Test System: Mouse lymphoma, Strain/Indicator: L5178Y (tk+/tk-), Metabolic Activation: Rat, Liver, S-9, Aroclor 1254, Method: Suspension/plate", "result": "active; positive"}]}, {"smiles": "Nc1ccc(Cc2ccc(NO)c(Cl)c2)cc1Cl", "values": [{"measurement": "mutagenic call", "setting": "Test System: AMES SALMONELLA TYPHIMURIUM, Strain/Indicator: TA98, Metabolic Activation: NONE, Method: PREINCUBATION", "result": "active; positive"}, {"measurement": "mutagenic call", "setting": "Test System: AMES SALMONELLA TYPHIMURIUM, Strain/Indicator: TA100, Metabolic Activation: NONE, Method: PREINCUBATION", "result": "active; positive"}]}]}
